What was measured:
FlagCRBN [1] = biological target: T1, FlagCRBN (Homo sapiens, UniProt Q96SW2); test: FlagCRBN immunoprecipitation from stable HEK293T cells, immunoblot for CRL4CRBN subunits and GS; type: cell-based; details: FIG. 2
T1 construct: expressed in transfected cells
Description: To confirm the results of the quantitative mass spectrometry, ^FlagCRBN was immunoprecipitated from the stable HEK293T cell line and immunoblotted for CRL4^CRBN subunits and GS. As expected, thalidomide enhanced recovery of GS but had no effect on binding of DDB1 or CUL4A (FIG. 2). In order to confirm this finding, endogenous proteins expressed in cells were analyzed that are responsive to the therapeutic effects of IMiDs. For this purpose, endogenous CRBN as immunoprecipitated from MM.1S multiple myeloma cells.
Immunoprecipitation. Cells were lysed in immunoprecipitation buffer (10 mM Tris [pH 7.5], 150 mM NaCl, 1% Triton X-100) containing a protease inhibitor cocktail, and immunoprecipitated with the indicated antibodies, such as anti-CRBN antibody for 2-4 hours at 4° C., followed by incubation with protein G sepharose 4 Fast Flow (GE Healthcare) for 1 hour at 4° C. Immunoprecipitated proteins were resolved by SDS/PAGE and analyzed by immunoblotting with the indicated antibodies.

FlagCRBN [2] = biological target: T1, FlagCRBN; test: SILAC quantitative mass spectrometry of FlagCRBN immunoprecipitates, thalidomide vs DMSO; type: cell-based; details: 50 μM thalidomide 4 hours vs DMSO
Description: To identify IMiD-modulated substrates of CRBN, a human embryonic kidney (HEK) 293T cell line was generated that stably expresses CRBN with a Flag tag appended to its amino terminus (^FlagCRBN). ^FlagCRBN cells were grown in medium formulated with isotopically light lysine and arginine (light medium) or in medium formulated with isotopically heavy lysine and arginine (heavy medium). Cells growing in heavy medium were treated with 50 μM thalidomide for 4 hours, whereas cells growing in light medium were treated with DMSO. ^FlagCRBN immunoprecipitates were prepared in parallel, mixed, and analyzed by quantitative mass spectrometry. […] Essentially identical results were obtained in a label swap experiment. […] (Lopez-Girona et al., 2012, supra and Zhu et al. 2011 supra.)
Preparation of ^FlagCRBN for mass spectrometry (MS). SILAC-labeled cultures of the stable cell lines were grown as described Lee et al., 2011, Molecular & Cellular Proteomics, 10: M110 006460,the entire contents of which are herein incorporated by reference. Briefly, HEK293T cells, stably expressing ^FlagCRBN, were cultured in medium formulated with isotopically light lysine and arginine (‘light’ medium) or in medium formulated with isotopically heavy lysine and arginine (‘heavy’ medium). The cells growing in ‘heavy’ medium were treated with thalidomide (a final concentration of 50 μM) for 4 hours, while the cells growing in ‘light’ medium were treated with DMSO. SILAC experiments were repeated after swapping the SILAC labels in which the cells cultured in ‘light’ and ‘heavy’ medium were treated with thalidomide and DMSO, respectively. The ^FlagCRBN immunoprecipitates were prepared, mixed, and analyzed by quantitative mass spectrometry.
MS data analysis. Thermo raw files were processed and searched with MaxQuant (v. 1.4.1.2), as described in Cox et al., 2008, Nat. Biotechnol. 26:1367; and Cox et al., 2011, J. of Proteome Research, 10:1794, the entire contents of both of which are herein incorporated by reference. Trypsin was specified as the digestion enzyme with up to two missed cleavages. Protein N-terminal acetylation (+42.0106) and methionine oxidation (+15.9949) were specified as variable modifications. Carbamidomethylation of cysteine (+57.0215) was specified as a fixed modification. Arg6 ([…]) and Lys8 (+8.0142) were specified as the SILAC labels. Requantification and match between runs were enabled. Precursor ion tolerance was 7 ppm and fragment ion tolerance was 0.5 Da. All human Uniprot entries were searched (148298 sequences, downloaded on 05Dec12) along with a contaminant database containing proteins such as keratin and trypsin (247 sequences). (Apweiler et al., 2013, Nucleic Acids Research, 41: D43, the entire contents of which are herein incorporated by reference.) Additionally, to determine the false discovery rate, a decoy database was constructed by reversing the target database. While no minimum score was specified, the protein and peptide level false discovery rates were fixed at 1% and we required that all proteins reported were identified in both biological replicates by at least two peptides.
Proteins were quantified by first calculating the median of all peptide ratios within each biological replicate and then calculating the mean of the two biological replicate ratios. Only peptides uniquely assignable to the protein group were used for quantification. […] Individual ratio measurement error was estimated using pooled variance and overall ratio standard error was calculated using bootstrap analysis. […] Q-values were calculated from the p-values using the Storey method for calculating false discovery rates as described in Storey et al., 2002, J. Roy Stat. Soc. B., 64:479, the entire contents of which is herein incorporated by reference. A q-value of 0.05 was used as a threshold for significance.

T1 sequence (Q96SW2 whole entry): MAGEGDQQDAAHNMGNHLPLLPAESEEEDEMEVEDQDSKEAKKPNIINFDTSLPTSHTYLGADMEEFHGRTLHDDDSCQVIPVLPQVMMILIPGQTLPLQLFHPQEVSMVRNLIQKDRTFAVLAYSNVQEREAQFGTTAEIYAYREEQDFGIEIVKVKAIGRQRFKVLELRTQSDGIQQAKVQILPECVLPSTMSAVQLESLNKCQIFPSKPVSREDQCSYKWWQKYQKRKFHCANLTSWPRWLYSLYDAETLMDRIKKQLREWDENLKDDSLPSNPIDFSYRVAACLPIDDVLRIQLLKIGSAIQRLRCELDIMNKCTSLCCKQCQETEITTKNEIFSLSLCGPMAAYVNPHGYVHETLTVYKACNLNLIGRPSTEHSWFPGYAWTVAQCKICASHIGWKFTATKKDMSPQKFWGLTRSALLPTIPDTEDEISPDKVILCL

binding of DDB1 or CUL4A to FlagCRBN (FlagCRBN [1]): no effect | recovery of GS with FlagCRBN (FlagCRBN [1]): enhanced | recovery of FlagCRBN, subunits of CRL4 (CUL4, DDB1, RBX1) and subunits of CSN (FlagCRBN [2]; FIG. 1): recovered in equal amounts | recovery of glutamine synthetase (GS) in FlagCRBN immunoprecipitates (FlagCRBN [2]; FIG. 1): recovered in greater amounts | +/−Thalidomide Ratio (FlagCRBN [2]; protein ATP5A1): 0.7541 | +/−Thalidomide Ratio (FlagCRBN [2]; protein ATP5B): 0.6236 | +/−Thalidomide Ratio (FlagCRBN [2]; protein BAG2): 0.6303 | +/−Thalidomide Ratio (FlagCRBN [2]; protein BOLA2): 0.5989 | +/−Thalidomide Ratio (FlagCRBN [2]; protein C11orf84): 0.7032 | +/−Thalidomide Ratio (FlagCRBN [2]; protein C12orf23): 0.6718 | +/−Thalidomide Ratio (FlagCRBN [2]; protein C22orf28): 0.7109 | +/−Thalidomide Ratio (FlagCRBN [2]; protein CCT5): 0.8584 | +/−Thalidomide Ratio (FlagCRBN [2]; protein CCT6A): 0.8483 | +/−Thalidomide Ratio (FlagCRBN [2]; protein CCT8): 0.8368 | +/−Thalidomide Ratio (FlagCRBN [2]; protein CLNS1A): 0.627 | +/−Thalidomide Ratio (FlagCRBN [2]; protein CMBL): 0.7463 | +/−Thalidomide Ratio (FlagCRBN [2]; protein COMT): 0.5482 | +/−Thalidomide Ratio (FlagCRBN [2]; protein DDX5, DKFZp686J01190): 0.6321 | +/−Thalidomide Ratio (FlagCRBN [2]; protein DKFZp686K23100, MATR3, DKFZp686K0542): 0.526 | +/−Thalidomide Ratio (FlagCRBN [2]; protein FUS): 0.5807 | +/−Thalidomide Ratio (FlagCRBN [2]; protein GLNS (glutamine synthetase)): 2.508 | +/−Thalidomide Ratio (FlagCRBN [2]; protein GLUD1, GLUD2): 0.7935 | +/−Thalidomide Ratio (FlagCRBN [2]; protein HNRNPA2B1): 0.4533 | +/−Thalidomide Ratio (FlagCRBN [2]; protein HNRNPAB): 0.569 | +/−Thalidomide Ratio (FlagCRBN [2]; protein HNRNPC, hCG_1641229, HNRPCL1, HNRNPCL1, LOC440563, LOC649330): 0.4229 | +/−Thalidomide Ratio (FlagCRBN [2]; protein HNRNPK, HNRPK): 0.5905 | +/−Thalidomide Ratio (FlagCRBN [2]; protein HNRNPL): 0.44 | +/−Thalidomide Ratio (FlagCRBN [2]; protein HNRNPM, ORF, HNRPM): 0.6977 | +/−Thalidomide Ratio (FlagCRBN [2]; protein HNRNPU, HNRPU): 0.7137 | +/−Thalidomide Ratio (FlagCRBN [2]; protein HSP90AA1): 0.7454 | +/−Thalidomide Ratio (FlagCRBN [2]; protein HSP90AB1): 0.79 | +/−Thalidomide Ratio (FlagCRBN [2]; protein IMPDH2): 0.8138 | +/−Thalidomide Ratio (FlagCRBN [2]; protein IVNS1ABP): 0.6131 | +/−Thalidomide Ratio (FlagCRBN [2]; protein KIF11): 0.6737 | +/−Thalidomide Ratio (FlagCRBN [2]; protein LUC7L2): 0.7578 | +/−Thalidomide Ratio (FlagCRBN [2]; protein PDIA6): 0.8515 | +/−Thalidomide Ratio (FlagCRBN [2]; protein PIH1D1): 0.5153 | +/−Thalidomide Ratio (FlagCRBN [2]; protein PRPS1): 0.7264 | +/−Thalidomide Ratio (FlagCRBN [2]; protein PRPS2): 0.6445 | +/−Thalidomide Ratio (FlagCRBN [2]; protein PUF60): 0.5471 | +/−Thalidomide Ratio (FlagCRBN [2]; protein RBM39, DKFZp781C0423, DKFZp686A11192, DKFZp781I1140, DKFZp686C17209): 0.6182 | +/−Thalidomide Ratio (FlagCRBN [2]; protein RBMX, RBMXL1): 0.5004 | +/−Thalidomide Ratio (FlagCRBN [2]; protein RIOK1): 0.6187 | +/−Thalidomide Ratio (FlagCRBN [2]; protein RPL26, KRBA2, RPL26L1): 0.698 | +/−Thalidomide Ratio (FlagCRBN [2]; protein RPL27): 0.7987 | +/−Thalidomide Ratio (FlagCRBN [2]; protein RPL35, LOC154880): 0.6839 | +/−Thalidomide Ratio (FlagCRBN [2]; protein RPS3A): 0.7607 | +/−Thalidomide Ratio (FlagCRBN [2]; protein RPS8): 0.8186 | +/−Thalidomide Ratio (FlagCRBN [2]; protein RPS25): 0.7348 | +/−Thalidomide Ratio (FlagCRBN [2]; protein RPSA, RPSAP58, LAMR1P15): 0.8005 | +/−Thalidomide Ratio (FlagCRBN [2]; protein RUVBL1): 0.7099 | +/−Thalidomide Ratio (FlagCRBN [2]; protein RUVBL2): 0.6927 | +/−Thalidomide Ratio (FlagCRBN [2]; protein SF3A3): 0.5959 | +/−Thalidomide Ratio (FlagCRBN [2]; protein SFRS11, SRSF11): 0.573 | +/−Thalidomide Ratio (FlagCRBN [2]; protein SNRPD1): 0.6168 | +/−Thalidomide Ratio (FlagCRBN [2]; protein SNRPD3): 0.6583 | +/−Thalidomide Ratio (FlagCRBN [2]; protein SNRPF): 0.6071 | +/−Thalidomide Ratio (FlagCRBN [2]; protein SNRPN, SNRPB): 0.6605 | +/−Thalidomide Ratio (FlagCRBN [2]; protein SPIN1): 0.6689 | +/−Thalidomide Ratio (FlagCRBN [2]; protein SRSF3, SFRS3): 0.651 | +/−Thalidomide Ratio (FlagCRBN [2]; protein STK38): 0.7445 | +/−Thalidomide Ratio (FlagCRBN [2]; protein TCP1): 0.8927 | +/−Thalidomide Ratio (FlagCRBN [2]; protein TRIM21): 0.7125 | +/−Thalidomide Ratio (FlagCRBN [2]; protein TXN): 0.7037 | +/−Thalidomide Ratio (FlagCRBN [2]; protein U2AF2): 0.6123 | +/−Thalidomide Ratio (FlagCRBN [2]; protein VCP, DKFZp434K0126): 0.7702 | +/−Thalidomide Ratio (FlagCRBN [2]; protein WDR77): 0.5895
Structure (SMILES): O=C1CCC(N2C(=O)c3ccccc3C2=O)C(=O)N1 (stereo not shown) [thalidomide, Thalidomide]

From US20140271926A1, “METHODS OF USE OF GLUTAMINE SYNTHETASE INHIBITORS” (CALIFORNIA INSTITUTE OF TECHNOLOGY, priority 2013, published 2014)
